ChEMBL document CHEMBL4346710, “Discovery of 7H-pyrrolo[2,3-d]pyrimidine derivatives as selective covalent irreversible inhibitors of interleukin-2-inducible T-cell kinase (Itk)” (Eur J Med Chem, 2019)
Activity calls are given as the source filed them. The rule behind the calls is not given here.

Experiments:
[1] = biological target: Tyrosine-protein kinase BTK (Homo sapiens, UniProt Q06187); assay: Inhibition of recombinant human full-length N-terminal His6-tagged BTK expressed in baculovirus infected Sf21 insect cells using STK substrate by HTRF assay
Sequence of Tyrosine-protein kinase BTK (Q06187 whole entry): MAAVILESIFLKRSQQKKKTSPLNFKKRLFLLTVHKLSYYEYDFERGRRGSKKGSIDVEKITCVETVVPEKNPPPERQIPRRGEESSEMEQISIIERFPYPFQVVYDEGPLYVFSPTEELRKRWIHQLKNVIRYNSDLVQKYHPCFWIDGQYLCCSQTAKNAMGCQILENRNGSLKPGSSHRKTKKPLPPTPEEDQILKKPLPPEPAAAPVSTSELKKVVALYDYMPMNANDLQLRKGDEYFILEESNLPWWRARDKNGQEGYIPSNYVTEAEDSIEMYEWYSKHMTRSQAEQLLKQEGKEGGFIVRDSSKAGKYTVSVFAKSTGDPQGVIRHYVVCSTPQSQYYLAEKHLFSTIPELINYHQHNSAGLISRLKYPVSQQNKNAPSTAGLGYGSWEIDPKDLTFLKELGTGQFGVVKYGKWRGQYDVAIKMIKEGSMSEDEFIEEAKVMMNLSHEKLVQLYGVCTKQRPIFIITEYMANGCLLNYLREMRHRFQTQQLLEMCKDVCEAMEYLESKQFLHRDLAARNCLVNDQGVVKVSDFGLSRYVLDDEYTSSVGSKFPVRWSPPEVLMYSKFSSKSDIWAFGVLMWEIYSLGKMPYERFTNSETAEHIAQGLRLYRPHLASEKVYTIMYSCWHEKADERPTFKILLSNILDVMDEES

[2] = biological target: T1, Tyrosine-protein kinase JAK3 (Homo sapiens, UniProt P52333); assay: Inhibition of recombinant human N-terminal His6-tagged JAK3 (781 to end residues) expressed in baculovirus infected Sf21 cells using STK as substrate by HTRF assay
T1 sequence (P52333 whole entry): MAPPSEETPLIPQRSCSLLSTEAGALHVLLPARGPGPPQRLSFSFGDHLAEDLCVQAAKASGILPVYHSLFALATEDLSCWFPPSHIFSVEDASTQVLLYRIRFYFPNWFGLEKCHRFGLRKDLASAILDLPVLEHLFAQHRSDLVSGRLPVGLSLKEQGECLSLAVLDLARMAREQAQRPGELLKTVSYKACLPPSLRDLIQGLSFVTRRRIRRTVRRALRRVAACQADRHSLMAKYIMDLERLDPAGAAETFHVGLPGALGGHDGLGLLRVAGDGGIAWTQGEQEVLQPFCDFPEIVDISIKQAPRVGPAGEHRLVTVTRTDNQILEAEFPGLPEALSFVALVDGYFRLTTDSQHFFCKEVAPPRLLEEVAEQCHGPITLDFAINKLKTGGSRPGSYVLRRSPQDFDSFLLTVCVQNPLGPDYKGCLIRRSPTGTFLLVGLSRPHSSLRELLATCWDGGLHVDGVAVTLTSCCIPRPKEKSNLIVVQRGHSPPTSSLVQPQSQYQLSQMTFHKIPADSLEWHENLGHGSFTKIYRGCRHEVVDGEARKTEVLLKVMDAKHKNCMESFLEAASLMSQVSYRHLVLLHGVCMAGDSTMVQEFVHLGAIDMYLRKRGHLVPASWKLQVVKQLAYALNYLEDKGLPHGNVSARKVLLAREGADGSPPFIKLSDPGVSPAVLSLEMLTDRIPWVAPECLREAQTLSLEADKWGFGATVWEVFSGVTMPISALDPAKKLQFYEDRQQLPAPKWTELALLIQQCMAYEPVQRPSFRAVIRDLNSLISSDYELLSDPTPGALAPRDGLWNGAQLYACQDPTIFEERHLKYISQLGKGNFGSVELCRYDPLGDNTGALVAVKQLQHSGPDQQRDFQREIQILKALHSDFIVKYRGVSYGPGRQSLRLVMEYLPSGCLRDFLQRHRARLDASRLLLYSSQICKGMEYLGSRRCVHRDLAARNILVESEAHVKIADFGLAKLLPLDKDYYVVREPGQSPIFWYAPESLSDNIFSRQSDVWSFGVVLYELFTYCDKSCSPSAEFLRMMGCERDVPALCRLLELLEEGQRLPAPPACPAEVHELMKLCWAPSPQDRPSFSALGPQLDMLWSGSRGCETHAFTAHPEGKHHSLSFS

[3] = test system: CCRF-CEM; assay: Induction of apoptosis in human CCRF-CEM cells assessed as upregulation of cleaved PARP at 1 to 5 uM incubated for 24 hrs by Western blot analysis; format: functional, cell-based
[4] = species: Homo sapiens; assay: Selectivity ratio of IC50 for recombinant human N-terminal His6-tagged JAK3 (781 to end residues) expressed in baculovirus infected Sf21 cells to IC50 for recombinant human N-terminal His6-tagged ITK (352 to 617 residues) expressed in baculovirus infected Sf21 insect cells
[5] = biological target: Rho-associated protein kinase 2 (Homo sapiens) (UniProt O75116); assay: (§1) Inhibition of recombinant human N-terminal GST-tagged ROCK2 catalytic domain (1 to 552 residues) expressed in baculovirus expression system assessed as enzyme residual activity at 0.4 uM using fluorophore-labeled serine/threonine-13 peptide as substrate incubated for 60 mins by Z'-LYTE assay relative to control
Sequence of Rho-associated protein kinase 2 (Homo sapiens) (O75116 whole entry, looked up, the tested form may be a part): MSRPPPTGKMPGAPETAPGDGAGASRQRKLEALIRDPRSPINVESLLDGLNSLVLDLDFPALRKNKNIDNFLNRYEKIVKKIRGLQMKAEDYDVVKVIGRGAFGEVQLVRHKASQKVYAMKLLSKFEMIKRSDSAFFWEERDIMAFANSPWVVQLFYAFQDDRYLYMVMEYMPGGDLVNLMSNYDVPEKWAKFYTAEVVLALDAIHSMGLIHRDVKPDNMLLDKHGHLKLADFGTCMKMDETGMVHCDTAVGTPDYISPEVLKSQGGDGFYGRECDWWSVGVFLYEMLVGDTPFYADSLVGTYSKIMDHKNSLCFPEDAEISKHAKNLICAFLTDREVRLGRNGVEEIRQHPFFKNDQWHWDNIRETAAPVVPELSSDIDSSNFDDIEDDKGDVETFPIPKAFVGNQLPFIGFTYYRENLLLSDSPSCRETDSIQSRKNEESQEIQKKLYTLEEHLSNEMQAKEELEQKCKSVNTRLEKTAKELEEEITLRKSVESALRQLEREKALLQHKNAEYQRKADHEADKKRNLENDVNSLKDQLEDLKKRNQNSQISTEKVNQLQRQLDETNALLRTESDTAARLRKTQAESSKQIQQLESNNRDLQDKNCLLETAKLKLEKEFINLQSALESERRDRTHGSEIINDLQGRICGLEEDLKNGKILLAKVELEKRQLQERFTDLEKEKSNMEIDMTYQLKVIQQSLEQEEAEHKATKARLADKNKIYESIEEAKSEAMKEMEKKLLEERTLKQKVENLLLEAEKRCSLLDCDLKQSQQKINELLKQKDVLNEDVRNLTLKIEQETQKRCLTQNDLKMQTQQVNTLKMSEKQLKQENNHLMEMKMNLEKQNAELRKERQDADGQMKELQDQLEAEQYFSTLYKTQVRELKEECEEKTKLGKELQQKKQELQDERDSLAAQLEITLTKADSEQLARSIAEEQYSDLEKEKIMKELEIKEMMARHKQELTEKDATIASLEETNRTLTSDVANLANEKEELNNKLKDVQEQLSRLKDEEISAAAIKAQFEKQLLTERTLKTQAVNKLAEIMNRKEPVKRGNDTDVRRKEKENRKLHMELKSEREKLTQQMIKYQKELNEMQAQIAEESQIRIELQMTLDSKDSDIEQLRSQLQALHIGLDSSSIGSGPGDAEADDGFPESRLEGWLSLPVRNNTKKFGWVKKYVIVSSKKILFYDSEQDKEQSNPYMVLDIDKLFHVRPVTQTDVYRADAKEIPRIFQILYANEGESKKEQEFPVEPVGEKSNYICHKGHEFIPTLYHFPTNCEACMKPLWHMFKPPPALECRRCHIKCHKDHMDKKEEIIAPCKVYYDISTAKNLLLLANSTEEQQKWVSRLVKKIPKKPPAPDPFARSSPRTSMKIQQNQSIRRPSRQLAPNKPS

[6] = biological target: RAC-alpha serine/threonine-protein kinase (Homo sapiens) (UniProt P31749); assay: Inhibition of recombinant full length human His-tagged AKT1 expressed in baculovirus expression system assessed as enzyme residual activity at 0.4 uM using fluorophore-labeled serine/threonine-06 peptide as substrate incubated for 60 mins by Z'-LYTE assay relative to control
[7] = biological target: Tyrosine-protein kinase ZAP-70 (Homo sapiens) (UniProt P43403); assay: Inhibition of recombinant full length human His-tagged ZAP70 cytoplasmic domain expressed in baculovirus expression system assessed as enzyme residual activity at 0.4 uM using fluorophore-labeled tyrosine-07 peptide as substrate incubated for 60 mins by Z'-LYTE assay relative to control
[8] = biological target: Mitogen-activated protein kinase 14 (Homo sapiens) (UniProt Q16539); assay: Inhibition of recombinant full length human GST-tagged MAPK14 expressed in Escherichia coli assessed as enzyme residual activity at 0.4 uM using fluorophore-labeled serine/threonine-04 peptide as substrate incubated for 60 mins by Z'-LYTE assay relative to control
[9] = biological target: Serine/threonine-protein kinase Nek1 (Homo sapiens) (UniProt Q96PY6); assay: as §1, with “human” for “human N-terminal”, “NEK1” for “ROCK2”, “505 amino acids)” for “552 residues)”, “serine/threonine-07” for “serine/threonine-13”
Sequence of Serine/threonine-protein kinase Nek1 (Homo sapiens) (Q96PY6 whole entry): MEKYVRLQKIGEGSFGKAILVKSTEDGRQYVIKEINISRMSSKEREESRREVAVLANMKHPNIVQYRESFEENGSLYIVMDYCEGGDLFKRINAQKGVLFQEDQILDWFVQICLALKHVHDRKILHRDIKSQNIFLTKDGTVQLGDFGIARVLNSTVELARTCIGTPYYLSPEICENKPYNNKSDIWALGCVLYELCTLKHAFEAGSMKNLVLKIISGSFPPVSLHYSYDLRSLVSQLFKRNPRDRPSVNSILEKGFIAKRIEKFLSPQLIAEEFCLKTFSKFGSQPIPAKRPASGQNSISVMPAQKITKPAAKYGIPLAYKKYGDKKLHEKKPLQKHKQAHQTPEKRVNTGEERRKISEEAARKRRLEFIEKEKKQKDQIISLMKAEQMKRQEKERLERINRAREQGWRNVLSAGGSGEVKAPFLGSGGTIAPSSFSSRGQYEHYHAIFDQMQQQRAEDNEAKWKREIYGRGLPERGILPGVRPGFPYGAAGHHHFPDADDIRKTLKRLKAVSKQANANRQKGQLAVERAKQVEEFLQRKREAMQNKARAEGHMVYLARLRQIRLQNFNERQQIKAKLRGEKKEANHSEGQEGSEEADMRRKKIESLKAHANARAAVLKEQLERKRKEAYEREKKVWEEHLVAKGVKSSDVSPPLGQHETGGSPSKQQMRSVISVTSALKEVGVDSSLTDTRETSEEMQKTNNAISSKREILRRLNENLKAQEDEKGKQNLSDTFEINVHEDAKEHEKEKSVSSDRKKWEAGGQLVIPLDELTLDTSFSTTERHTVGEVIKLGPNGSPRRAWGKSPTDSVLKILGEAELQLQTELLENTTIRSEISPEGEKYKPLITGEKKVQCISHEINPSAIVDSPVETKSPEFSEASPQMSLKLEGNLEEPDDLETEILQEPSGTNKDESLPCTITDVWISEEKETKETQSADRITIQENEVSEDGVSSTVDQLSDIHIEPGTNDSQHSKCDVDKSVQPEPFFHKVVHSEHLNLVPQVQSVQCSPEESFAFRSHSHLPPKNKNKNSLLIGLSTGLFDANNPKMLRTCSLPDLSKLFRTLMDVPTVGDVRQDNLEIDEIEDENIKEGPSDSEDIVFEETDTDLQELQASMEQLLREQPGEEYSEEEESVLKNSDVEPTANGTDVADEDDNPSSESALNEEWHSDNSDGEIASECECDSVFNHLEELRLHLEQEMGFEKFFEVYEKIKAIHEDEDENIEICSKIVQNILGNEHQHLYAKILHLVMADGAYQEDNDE

[10] = biological target: Serine/threonine-protein kinase Chk2 (Homo sapiens) (UniProt O96017); assay: Inhibition of recombinant full length human His-tagged CHEK2 expressed in baculovirus expression system assessed as enzyme residual activity at 0.4 uM using fluorophore-labeled serine/threonine-07 peptide as substrate incubated for 60 mins by Z'-LYTE assay relative to control
[11] = biological target: Epidermal growth factor receptor (Homo sapiens, UniProt P00533); assay: Inhibition of human recombinant GST-tagged EGFR cytoplasmic domain (668 to 1210 residues) expressed in baculovirus expression system assessed as enzyme residual activity at 0.4 uM using fluorophore-labeled tyrosine-4 peptide as substrate by Z'-Lyte assay relative to control
[12] = biological target: Interleukin-1 receptor-associated kinase 4 (Homo sapiens) (UniProt Q9NWZ3); assay: Inhibition of recombinant human His-tagged IRAK4 expressed in baculovirus expression system assessed as enzyme residual activity at 0.4 uM using fluorophore-labeled serine/threonine-7 peptide as substrate incubated for 60 mins by Z'-LYTE assay relative to control
Sequence of Interleukin-1 receptor-associated kinase 4 (Homo sapiens) (Q9NWZ3 whole entry, the tested form may be a part): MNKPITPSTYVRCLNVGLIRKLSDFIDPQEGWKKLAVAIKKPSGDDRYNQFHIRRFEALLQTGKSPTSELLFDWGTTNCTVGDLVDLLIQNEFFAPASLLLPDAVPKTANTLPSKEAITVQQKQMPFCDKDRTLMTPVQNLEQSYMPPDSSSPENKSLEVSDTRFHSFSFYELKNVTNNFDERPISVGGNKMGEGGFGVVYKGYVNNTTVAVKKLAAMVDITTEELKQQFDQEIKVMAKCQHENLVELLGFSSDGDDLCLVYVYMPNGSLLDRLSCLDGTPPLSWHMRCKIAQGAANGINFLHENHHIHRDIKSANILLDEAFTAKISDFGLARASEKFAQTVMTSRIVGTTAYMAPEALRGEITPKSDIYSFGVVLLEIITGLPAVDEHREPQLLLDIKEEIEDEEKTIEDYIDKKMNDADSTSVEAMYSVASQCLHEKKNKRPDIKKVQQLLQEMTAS

[13] = biological target: T2, Tyrosine-protein kinase Lck (Homo sapiens, UniProt P06239); assay: Inhibition of recombinant full length human C-terminal His-tagged LCK cytoplasmic domain expressed in baculovirus expression system assessed as enzyme residual activity at 0.4 uM using fluorophore-labeled tyrosine-2 peptide as substrate incubated for 60 mins by Z'-LYTE assay relative to control
[14] = test system: Jurkat; assay: Growth inhibition of human Jurkat cells incubated for 72 hrs by CellTiter-Glo luminescent cell viability assay; format: functional
[15] = test system: MOLT-4; assay: Induction of apoptosis in human MOLT4 cells assessed as downregulation of PARP at 1 to 20 uM incubated for 24 hrs by Western blot analysis; format: functional, cell-based
[16] = biological target: TAK1/TAB1 (Homo sapiens, UniProt O43318); assay: Inhibition of tracer 222 binding to recombinant full-length human His-tagged MAP3K7/MAP3K7IP1 (437 to 504 residues) expressed in baculovirus expression system by Lanthascreen assay
Sequence of TAK1/TAB1 (Q15750 whole entry, the tested form may be a part): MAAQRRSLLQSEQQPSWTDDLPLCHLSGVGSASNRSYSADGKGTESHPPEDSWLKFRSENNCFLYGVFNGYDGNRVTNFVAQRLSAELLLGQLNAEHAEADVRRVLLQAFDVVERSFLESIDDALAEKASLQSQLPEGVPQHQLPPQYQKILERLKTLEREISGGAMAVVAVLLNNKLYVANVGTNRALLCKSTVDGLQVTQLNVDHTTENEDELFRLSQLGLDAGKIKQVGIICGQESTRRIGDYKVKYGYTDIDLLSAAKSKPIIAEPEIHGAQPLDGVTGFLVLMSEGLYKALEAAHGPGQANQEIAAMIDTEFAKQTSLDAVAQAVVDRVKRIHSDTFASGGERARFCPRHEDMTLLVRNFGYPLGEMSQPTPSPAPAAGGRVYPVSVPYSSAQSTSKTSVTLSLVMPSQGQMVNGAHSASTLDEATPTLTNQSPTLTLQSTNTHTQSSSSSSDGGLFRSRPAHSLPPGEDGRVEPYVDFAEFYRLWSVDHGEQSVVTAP
Sequence of TAK1/TAB1 (O43318 whole entry, the tested form may be a part): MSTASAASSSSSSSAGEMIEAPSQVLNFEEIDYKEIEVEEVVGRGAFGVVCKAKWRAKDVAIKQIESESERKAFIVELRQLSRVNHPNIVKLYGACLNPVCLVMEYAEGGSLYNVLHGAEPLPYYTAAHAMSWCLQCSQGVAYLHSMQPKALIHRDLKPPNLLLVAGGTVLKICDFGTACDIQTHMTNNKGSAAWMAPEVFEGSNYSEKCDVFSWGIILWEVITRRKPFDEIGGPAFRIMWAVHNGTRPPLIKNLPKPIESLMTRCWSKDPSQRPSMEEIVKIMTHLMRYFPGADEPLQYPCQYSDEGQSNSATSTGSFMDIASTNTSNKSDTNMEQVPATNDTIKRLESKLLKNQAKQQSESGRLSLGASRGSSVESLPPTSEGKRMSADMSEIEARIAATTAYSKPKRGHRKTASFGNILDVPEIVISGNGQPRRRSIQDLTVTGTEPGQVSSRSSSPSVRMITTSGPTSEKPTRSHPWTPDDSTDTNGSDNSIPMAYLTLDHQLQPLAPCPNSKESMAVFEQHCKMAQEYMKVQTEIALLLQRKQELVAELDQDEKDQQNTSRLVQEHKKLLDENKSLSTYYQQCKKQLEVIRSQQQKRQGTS

[17] = biological target: T2, Tyrosine-protein kinase Lck; assay: Inhibition of recombinant full length human C-terminal His-tagged LCK cytoplasmic domain expressed in baculovirus expression system using fluorophore-labeled tyrosine-2 peptide as substrate incubated for 60 mins by Z'-LYTE assay

IC50 [1]: 996 nM
IC50 [2]: 123 nM
Activity [5]: 96.3%
Activity [6]: 96%
Activity [7]: 95%
Activity [8]: 95%
Activity [9]: 89%
Activity [10]: 78.7%
Activity [11]: 62%
Activity [12]: 19.3%
Activity [13]: 9%
GI50 [14]: 184 nM
IC50 [16]: 54 nM
IC50 [17]: 74 nM
SMILES: C=CC(=O)N1CCC(Oc2nc(Nc3ccc(N4CCOCC4)cc3)nc3[nH]cc(-c4cncc(NC)n4)c23)CC1
Activity [3]: Active
Ratio IC50 [4]: 33
Activity [15]: Active
